Data: patent publication US20200190101A1, “Composition Containing Novel Glutamic Acid Derivative And Block Copolymer, And Use Thereof” (Nippon Kayaku Kabushiki Kaisha, priority 2015, published 2020)
Structures can show the parent of a compound that is named as a salt. Where two headings read alike, the source gives them in different places.

Assays:
[1] = system: γ-glutamyl transpeptidase (GGT); test: γ-Glutamyl transpeptidase (GGT) enzyme recognition test; format: biochemical; conditions: 37° C.
Procedure: To 0.150 mL of this doxorubicin-bonded glutamic acid derivative (prodrug) PBS solution, 0.150 mL of a 2 U/mL GGT solution obtained by dissolving GGT (0.22 mg, 8 U/mg) (Sigma-Aldrich Company) in PBS (0.880 mL) was added, and the mixture was allowed to react at 37° C.
The reaction liquid was analyzed by HPLC, and thus the residual ratio of the doxorubicin-bonded glutamic acid derivative (prodrug) and the production ratio of doxorubicin were determined.
To 0.100 mL of the doxorubicin-bonded glutamic acid derivative PBS solution, 0.100 mL of a 2 U/mL GGT solution obtained by dissolving GGT (0.38 mg, 8 U/mg) (Sigma-Aldrich Company) in PBS (1.520 mL) was added, and the mixture was allowed to react at 37° C. […]

[2] = system: human ovarian cancer SHIN-3 tumors; test: Test on antitumor effect of Synthesis Example 1, SHIN-3 tumors; format: in vivo; conditions: 5 mg/kg i.v., at an interval of 7 days
Procedure: By an operation similar to that of Test Example 12, human ovarian cancer SHIN-3 tumors were subcutaneously transplanted into SCID mice, and tumor engraftment was confirmed.
After the administration, the major axis (L) and the minor axis (W) of a tumor were measured using calipers at an interval of 2 to 3 days, the tumor volume was calculated by the formula: (L×W^2)/2, and the tumor volume change rate from the administration initiation day was determined.

[3] = system: OS-RC-2 cells having high GGT activity; test: cells; format: cell-based, human; conditions: OS-RC-2 cells, 6 hours exposure then 3 days incubation
Procedure: (§1) After the cells were incubated for 6 hours, the interior of the wells was washed, and after the cells were further incubated for 3 days, the cells were immobilized with methanol and stained using Methylene Blue dye. After staining, the dye was extracted with a 0.3% aqueous solution of hydrochloric acid was extracted, and the light absorbance at 660 nm was measured. For the light absorbance thus obtained, the cell proliferation suppressive activity was evaluated based on the reduction ratio for the light absorbance measured from cells to which the compound was not added.
(§2) By a similar operation, the cell proliferation suppressive activity was evaluated from the light absorbance, using doxorubicin that was not converted to a glutamic acid derivative. The results are shown in FIG. 1 (OS-RC-2 cells having high GGT activity) and FIG. 2 (SK-OV-3 cells having low GGT activity).
(§3) The cell proliferation inhibitory activity of the EHC-bonded glutamic acid derivative according to Synthesis Example 6 was evaluated using OS-RC-2 cells (RIKEN BioResource Center), which are known to have high GGT activity, and SK-OV-3 cells (American Type Culture Collection), which are known to have low GGT activity.
(§4) On a 96-well plate, OS-RC-2 cells having high GGT activity and SK-OV-3 cells having low GGT activity were each inoculated in an amount of 4,000 cells/well and were incubated for one day at 37° C. and 5% CO2, and then the EHC prodrug according to Synthesis Example 6 was added to the cells at a final concentration of 0.0001 to 1 μM. After the cells were incubated for 6 hours, the interior of the wells was washed, and the cells were further incubated for 3 days. After the incubation, the cells were immobilized with methanol and were stained using Methylene Blue dye. After staining, the dye was extracted with a 0.3% aqueous solution of hydrochloric acid, and the light absorbance at 660 nm was measured. The cell proliferation suppressive activity was evaluated based on the reduction ratio for the light absorbance thus obtained, with respect to the light absorbance measured from cells to which the compound was not added.
(§5) By a similar operation, EHC, which was an active ingredient of Synthesis Example 6, was used without modification, and the cell proliferation suppressive activity was evaluated from the light absorbance.

[4] = system: OS-RC-2 cells having high GGT activity; format: cell-based, human; conditions: GGsTop 10 μM
Procedure: OS-RC-2 cells were inoculated by a method similar to that of Test Example 3. […] After the cells were incubated for 6 hours, the interior of the wells was washed, and after the cells were further incubated for 3 days, the cell proliferation suppressive activity was evaluated by a method similar to that of Test Example 3.
By a similar operation, the cell proliferation suppressive activity was evaluated using doxorubicin that was not glutamic acid-derivatized, from the light absorbance of the compound.
The GGT activity dependency of the cell proliferation inhibitory activity of the EHC-bonded glutamic acid derivative according to Synthesis Example 6 was evaluated using OS-RC-2 cells having high GGT activity.
OS-RC-2 cells were inoculated by a method similar to that of Test Example 10. After the cells were incubated for one day, GGsTop (Wako Pure Chemical Industries, Ltd.), which is a GGT inhibitor, was added to the cells at a final concentration of 10 μM, and the cells were incubated for one hour. Subsequently, the EHC-bonded glutamic acid derivative according to Synthesis Example 6 was added to the cells at a final concentration of 0.0001 to 1 μM. After the cells were incubated for 6 hours, the interior of the wells was washed, and after the cells were incubated for 3 days, the cell proliferation suppressive activity was evaluated by a method similar to that of Test Example 10.
By a similar operation, the cell proliferation suppressive activity was evaluated using EHC, which is the active ingredient of Synthesis Example 6, from the light absorbance of the compound.

[5] = system: SK-OV-3 cells having low GGT activity; test: cells; format: cell-based; conditions: SK-OV-3 cells, 6 hours exposure then 3 days incubation
Procedure: as §1, §2, §3, §4, §5

[6] = Phosphate buffered physiological saline (PBS) solution stability test; format: physicochemical; conditions: PBS (DMSO stock), 37° C.
Procedure: 0.148 mL of the doxorubicin-bonded glutamic acid derivative PBS solution was dissolved in 0.148 mL of a PBS solution, and the solution was allowed to react at 37° C.
PBS (0.100 mL) was added to the EHC-bonded glutamic acid derivative solution (0.100 mL), and the mixture was allowed to react at 37° C. The reaction liquid was analyzed by HPLC, and thereby the residual ratio of the EHC-bonded glutamic acid derivative was determined.
PBS (0.117 mL) was added to the camptothecin-bonded glutamic acid derivative solution (0.117 mL), and the mixture was allowed to react at 37° C. The reaction liquid was analyzed by HPLC, and thereby the residual ratio of the glutamic acid derivative was determined.
The reaction liquid was analyzed by HPLC, and thereby the residual ratio of the EHC-bonded glutamic acid derivative was determined.

[7] = after 6 hours, 2 mM PBS solution + 2 U/mL GGT solution
[8] = Homo sapiens, 10 μM, read-out: Cell proliferation inhibitory activity

COc1cccc2c1C(=O)c1c(O)c3c(c(O)c1C2=O)C[C@@](O)(C(=O)CO)C[C@@H]3O[C@H]1C[C@H](NC(=O)CC[C@H](N)C(=O)O)[C@H](O)[C@H](C)O1 [Comparative Example 1, (S)-(4-amino-4-carboxybutanamido)doxorubicin, reference compound]
Residual ratio of the glutamic acid derivative [1, 7]: 93%

N[C@@H](CCC(=O)Nc1ccc(COC(=O)Nc2ccn([C@@H]3O[C@H](CO)C(O)[C@H]3O)c(=O)n2)cc1)C(=O)O (stereo partly drawn) [Synthesis Example 5, (((4-((S)-4-amino-4-carboxybutanamido)benzyl)oxy)carbonyl)cytarabine]
Residual ratio of the glutamic acid derivative ([1]; after 6.5 hours, 1 mM PBS solution + 2 U/mL GGT solution): 34%

COc1cccc2c1C(=O)c1c(O)c3c(c(O)c1C2=O)C[C@@](O)(C(=O)CO)C[C@@H]3O[C@H]1C[C@H](N)[C@H](O)[C@H](C)O1 [doxorubicin hydrochloride, reference compound]
Toxicity (death of mice) [2]: the mice died after the second administration due to toxicity

COc1cccc2c1C(=O)c1c(O)c3c(c(O)c1C2=O)C[C@@](O)(C(=O)CO)C[C@@H]3O[C@H]1C[C@H](N)[C@H](O)[C@H](C)O1 [doxorubicin, reference compound]
inhibition at 10 µM [3, 8]: 77%
Effect of GGT inhibitor on cell proliferation suppressive activity ([4]; compound 0.039 to 10 μM): did not affect the cell proliferation suppressive activity
inhibition at 10 µM [5, 8]: 77%

CC[C@@]1(O)C(=O)OCc2c1cc1n(c2=O)Cc2cc3c(NC(=O)CC[C@H](N)C(=O)O)cccc3nc2-1 [Comparative Example 2, 9-((S)-4-amino-4-carboxybutanamido)camptothecin, reference compound]
Residual ratio of the glutamic acid derivative [1, 7]: 99%

CCc1c2c(nc3ccc(O)cc13)-c1cc3c(c(=O)n1C2)COC(=O)[C@]3(O)CC [EHC, 7-ethyl-10-hydroxycamptothecin, reference compound]
Cell proliferation inhibitory activity ([3]; 0.01 μM): 26%
Effect of GGT inhibitor on cell proliferation suppressive activity ([4]; compound 0.0001 to 1 μM): did not affect the cell proliferation suppressive activity
Cell proliferation inhibitory activity ([5]; 0.01 μM): 27.7%

CCc1c2c(nc3ccc(OC(=O)OCc4ccc(NC(=O)CC[C@H](N)C(=O)O)cc4)cc13)-c1cc3c(c(=O)n1C2)COC(=O)[C@]3(O)CC [Synthesis Example 2, (((4-((S)-4-amino-4-carboxybutanamido)benzyl)oxy)carbonyl)-10-oxy-7-ethylcamptothecin]
Residual ratio of the glutamic acid derivative in PBS ([6]; after 3.5 hours): 52%

CC[C@@]1(OC(=O)OCc2ccc(NC(=O)CC[C@H](N)C(=O)O)cc2)C(=O)OCc2c1cc1n(c2=O)Cc2cc3ccccc3nc2-1 [Synthesis Example 3, (((4-((S)-4-amino-4-carboxybutanamido)benzyl)oxy)carbonyl)camptothecin]
Residual ratio of the glutamic acid derivative in PBS ([6]; after 3 hours): 74%

COc1cccc2c1C(=O)c1c(O)c3c(c(O)c1C2=O)CC(O)(C(=O)CO)CC3OC1CC(NC(=O)OCc2ccc(NC(=O)CCC(N)C(=O)O)cc2)C(O)C(C)O1 [Synthesis Example 4, (((4-((S)-4-amino-4-carboxybutanamido)benzyl)oxy)carbonyl)epirubicin]
Residual ratio of the glutamic acid derivative [1, 7]: 5%
